Among the data in patent publication US10556902B2 (Asceneuron SA, priority 2016, dated 2020) are IC50 values, retold here.

A value given as a limit tells only on which side of the number the result lay.

The target in the first test is His-Tagged hOGA (human O-GlcNAcase) (Homo sapiens (Human), UniProt O60502). Description: Human O-GlcNAcase enzyme inhibition assay.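 Further: reactions contained 20 nM His-tagged hOGA enzyme with 10 µM FL-GlcNAc substrate.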 To be noted: OGA IC50 (M), FL-GlcNAc substrate, pH 6.5, activity classes defined in μM. It counts as biochemical.
Chain of His-Tagged hOGA (human O-GlcNAcase) (O60502 whole entry): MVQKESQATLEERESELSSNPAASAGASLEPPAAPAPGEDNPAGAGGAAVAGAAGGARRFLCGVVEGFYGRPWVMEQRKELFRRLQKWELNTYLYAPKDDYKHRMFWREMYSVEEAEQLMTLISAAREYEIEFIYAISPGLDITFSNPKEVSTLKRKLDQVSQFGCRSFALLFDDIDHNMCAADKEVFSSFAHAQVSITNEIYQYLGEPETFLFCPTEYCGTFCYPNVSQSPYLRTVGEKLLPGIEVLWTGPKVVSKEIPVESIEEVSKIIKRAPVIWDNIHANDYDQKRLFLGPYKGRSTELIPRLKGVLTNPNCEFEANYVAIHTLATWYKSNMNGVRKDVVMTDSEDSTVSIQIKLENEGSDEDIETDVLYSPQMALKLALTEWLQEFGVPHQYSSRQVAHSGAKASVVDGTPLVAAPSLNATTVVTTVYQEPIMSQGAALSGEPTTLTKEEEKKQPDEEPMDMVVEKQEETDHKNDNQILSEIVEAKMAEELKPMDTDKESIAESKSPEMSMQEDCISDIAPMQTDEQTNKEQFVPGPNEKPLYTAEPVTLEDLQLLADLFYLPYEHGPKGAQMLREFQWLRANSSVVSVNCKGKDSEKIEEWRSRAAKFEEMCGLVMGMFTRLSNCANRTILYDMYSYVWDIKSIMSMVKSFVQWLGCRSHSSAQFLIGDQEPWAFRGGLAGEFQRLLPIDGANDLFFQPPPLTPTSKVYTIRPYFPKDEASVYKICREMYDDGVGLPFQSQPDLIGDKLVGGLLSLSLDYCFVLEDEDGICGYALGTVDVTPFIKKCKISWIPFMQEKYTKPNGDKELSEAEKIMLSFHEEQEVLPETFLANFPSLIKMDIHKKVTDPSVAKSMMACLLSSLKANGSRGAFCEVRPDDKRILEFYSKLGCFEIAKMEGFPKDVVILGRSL
Experimental: Then, 20 nM of His-Tagged hOGA and 10 μM of FL-GlcNAc (Fluorescein mono-beta-D-(2-deoxy-2-N-acetyl) glucopyranoside; Marker Gene Technologies Inc, M1485) were added to the 384-well plate for a final volume of 20 μl.
The IC50 is the concentration that inhibits the measured activity by half. In the case of `CC(O)c1nnc(N2CCN(C(C)c3ccc4nccnc4c3)CC2)s1` (racemic) [Example 115, 1-(5-(4-(1-(quinoxalin-6-yl)ethyl)piperazin-1-yl)-1,3,4-thiadiazol-2-yl)ethan-1-ol], the IC50 is 2e-07 to 1e-06 M.
`CC(c1ccc2nccnc2c1)N1CCC(n2cc(C(F)(F)F)cn2)CC1` (stereo not drawn) [Example 31] displayed an IC50 of 1e-06 to 1e-05 M.
As for `CC(c1ccc2nccnc2c1)N1CCN(c2ccc(=O)[nH]n2)CC1` (stereo not drawn) [Example 39], the IC50 fell in the range of 5e-08 to 2e-07 M.

Staying with this test, now noted: OGA enzyme inhibition assay; FL-GlcNAc substrate, pH 6.5; activity classes defined in μM; read-out: OGA IC50.
As for `CC(c1ccc2cccnc2n1)N1CCN(c2ncc(C(F)(F)F)cn2)CC1` (racemic) [Example 92, 2-(1-(4-(5-(trifluoromethyl)pyrimidin-2-yl)piperazin-1-yl)ethyl)-1,8-naphthyridine], the IC50 lay in the range of 5e-08 to 2e-07 M.
Still for that read-out and setting: then `CC(c1cnc2cccnc2c1)N1CCN(c2ncc(C(F)(F)F)cn2)CC1` (racemic) [Example 93, 3-(1-(4-(5-(trifluoromethyl)pyrimidin-2-yl)piperazin-1-yl)ethyl)-1,5-naphthyridine], with 2e-07 to 1e-06 M.
Same read-out and setting: then `CC(c1ccc2nccnc2c1)N1CCN(c2ncc(C3=CCCC3)cn2)CC1` (racemic) [Example 94, 6-(1-(4-(5-(cyclopent-1-en-1-yl)pyrimidin-2-yl)piperazin-1-yl)ethyl)quinoxaline], with 2e-07 to 1e-06 M; and `COC(=O)c1cnc(N2CCN(C(C)c3ccc4scnc4c3)CC2)nc1` (racemic) [Example 95, Methyl 2-(4-(1-(benzo[d]thiazol-5-yl)ethyl)piperazin-1-yl)pyrimidine-5-carboxylate], with less than 5e-08 M; and `CNC(=O)c1cnc(N2CCN(C(C)c3ccc4scnc4c3)CC2)nc1` (racemic) [Example 96, 2-(4-(1-(benzo[d]thiazol-5-yl)ethyl)piperazin-1-yl)-N-methylpyrimidine-5-carboxamide], with less than 5e-08 M.
Still for that read-out and setting: to `CC(c1ccc2scnc2c1)N1CCN(c2ncc(C(=O)N(C)C)cn2)CC1` (racemic) [Example 97, 2-(4-(1-(benzo[d]thiazol-5-yl)ethyl)piperazin-1-yl)-N,N-dimethylpyrimidine-5-carboxamide] belongs less than 5e-08 M; to `COC(=O)c1cnc(N2CCN(C(C)c3ccc4c(c3)OCC4)CC2)nc1` (racemic) [Example 98, Methyl 2-(4-(1-(2,3-dihydrobenzofuran-6-yl)ethyl)piperazin-1-yl)pyrimidine-5-carboxylate], less than 5e-08 M; to `CNC(=O)c1cnc(N2CCN(C(C)c3ccc4c(c3)OCC4)CC2)nc1` (racemic) [Example 99, 2-(4-(1-(2,3-dihydrobenzofuran-6-yl)ethyl)piperazin-1-yl)-N-methylpyrimidine-5-carboxamide], less than 5e-08 M.
With `CC(c1ccc2c(c1)OCC2)N1CCN(c2ncc(C(=O)N(C)C)cn2)CC1` (racemic) [Example 100, 2-(4-(1-(2,3-dihydrobenzofuran-6-yl)ethyl)piperazin-1-yl)-N,N-dimethylpyrimidine-5-carboxamide], the IC50 is less than 5e-08 M.
For the compound `CC(c1ccc2c(c1)OCC2)N1CCN(c2nccc(C(=O)N(C)C)n2)CC1` (racemic) [Example 101, 2-(4-(1-(2,3-dihydrobenzofuran-6-yl)ethyl)piperazin-1-yl)-N,N-dimethylpyrimidine-4-carboxamide], the IC50 is less than 5e-08 M.
With `COC(=O)c1ccnc(N2CCN(C(C)c3ccc4c(c3)OCC4)CC2)n1` (racemic) [Example 102, Methyl 2-(4-(1-(2,3-dihydrobenzofuran-6-yl)ethyl)piperazin-1-yl)pyrimidine-4-carboxylate], the IC50 was less than 5e-08 M.
Same read-out and setting: then `CNC(=O)c1ccnc(N2CCN(C(C)c3ccc4c(c3)OCC4)CC2)n1` (racemic) [Example 103, 2-(4-(1-(2,3-dihydrobenzofuran-6-yl)ethyl)piperazin-1-yl)-N-methylpyrimidine-4-carboxamide], with less than 5e-08 M; and `CC(=O)NC(C)(C)c1cnc(N2CCN(C(C)c3ccc4c(c3)OCC4)CC2)nc1` (racemic) [Example 104], with less than 5e-08 M; and `COC(=O)c1cnc(N2CCN(C(C)c3ccc4nccnc4c3)CC2)nc1` (racemic) [Example 105, Methyl 2-(4-(1-(quinoxalin-6-yl)ethyl)piperazin-1-yl)pyrimidine-5-carboxylate], with 5e-08 to 2e-07 M.
With `CC(c1ccc2nccnc2c1)N1CCN(c2ncc(C(=O)O)cn2)CC1` (racemic) [Example 106, 2-(4-(1-(quinoxalin-6-yl)ethyl)piperazin-1-yl)pyrimidine-5-carboxylic acid], the IC50 fell in the range of 5e-08 to 2e-07 M.
The same measure, in the same setting: then `CC(=O)NC(C)(C)c1cnc(N2CCN(C(C)c3ccc4nccnc4c3)CC2)nc1` (racemic) [Example 107, N-(2-(2-(4-(1-(quinoxalin-6-yl)ethyl)piperazin-1-yl)pyrimidin-5-yl)propan-2-yl)acetamide], with 2e-07 to 1e-06 M; and `CC(=O)NCc1nnc(N2CCN(C(C)c3ccc4c(c3)OCC4)CC2)s1` (racemic) [Example 110], with less than 5e-08 M.
On the same count and under the same terms, then `CC(=O)Nc1nnc(N2CCN(C(C)c3cnc4cccnc4c3)CC2)s1` (racemic) [Example 111, N-(5-(4-(1-(1,5-naphthyridin-3-yl)ethyl)piperazin-1-yl)-1,3,4-thiadiazol-2-yl)acetamide], with 5e-08 to 2e-07 M.
Still for that read-out and setting: to `CC(=O)NCc1nnc(N2CCN(C(C)c3ccc4nccnc4c3)CC2)s1` (racemic) [Example 112, N-((5-(4-(1-(quinoxalin-6-yl)ethyl)piperazin-1-yl)-1,3,4-thiadiazol-2-yl)methyl)acetamide] belongs 5e-08 to 2e-07 M; to `CC(c1ccc2c(c1)OCC2)N1CCN(c2nnc(CO)s2)CC1` (racemic) [Example 113, (5-(4-(1-(2,3-dihydrobenzofuran-6-yl)ethyl)piperazin-1-yl)-1,3,4-thiadiazol-2-yl)methanol], less than 5e-08 M.
As to `CC(O)c1nnc(N2CCN(C(C)c3ccc4c(c3)OCC4)CC2)s1` (racemic) [Example 114, 1-(5-(4-(1-(2,3-dihydrobenzofuran-6-yl)ethyl)piperazin-1-yl)-1,3,4-thiadiazol-2-yl)ethan-1-ol], the IC50 was less than 5e-08 M.
Still for that read-out and setting: to `Cc1nnc(N2CCN(C(C)c3ccc4nccnc4c3)CC2)s1` (racemic) [Example 116, 2-methyl-5-(4-(1-(quinoxalin-6-yl)ethyl)piperazin-1-yl)-1,3,4-thiadiazolequinoxaline] belongs 2e-07 to 1e-06 M; to `CCOC(=O)c1nnc(N2CCN(C(C)c3ccc4c(c3)OCC4)CC2)s1` (racemic) [Example 117, Ethyl 5-(4-(1-(2,3-dihydrobenzofuran-6-yl)ethyl)piperazin-1-yl)-1,3,4-thiadiazole-2-carboxylate], 5e-08 to 2e-07 M; to `CNC(=O)c1nnc(N2CCN(C(C)c3ccc4c(c3)OCC4)CC2)s1` (racemic) [Example 118, 5-(4-(1-(2,3-dihydrobenzofuran-6-yl)ethyl)piperazin-1-yl)-N-methyl-1,3,4-thiadiazole-2-carboxamide], less than 5e-08 M.
As for `CC(c1ccc2c(c1)OCC2)N1CCN(c2nnc(C(=O)N(C)C)s2)CC1` (racemic) [Example 119, 5-(4-(1-(2,3-dihydrobenzofuran-6-yl)ethyl)piperazin-1-yl)-N,N-dimethyl-1,3,4-thiadiazole-2-carboxamide], the concentration for half-maximal inhibition (IC50) is less than 5e-08 M.
Take `CCOC(=O)c1nnc(N2CCN(C(C)c3ccc4nccnc4c3)CC2)s1` (racemic) [Example 120, Ethyl 5-(4-(1-(quinoxalin-6-yl)ethyl)piperazin-1-yl)-1,3,4-thiadiazole-2-carboxylate]: the IC50 lay in the range of 1e-06 to 1e-05 M.
As for `CNC(=O)c1nnc(N2CCN(C(C)c3ccc4nccnc4c3)CC2)s1` (racemic) [Example 121, N-methyl-5-(4-(1-(quinoxalin-6-yl)ethyl)piperazin-1-yl)-1,3,4-thiadiazole-2-carboxamide], the half-inhibitory concentration (IC50) lay in the range of 2e-07 to 1e-06 M.
The same measure, in the same setting: to `CC(c1ccc2nccnc2c1)N1CCN(c2nnc(C(=O)N(C)C)s2)CC1` (racemic) [Example 122, N,N-dimethyl-5-(4-(1-(quinoxalin-6-yl)ethyl)piperazin-1-yl)-1,3,4-thiadiazole-2 carboxamide] belongs 2e-07 to 1e-06 M.
On the same count and under the same terms, to `CC(c1ccc2c(c1)OCC2)N1CCN(c2nnc(CN(C)C)s2)CC1` (racemic) [Example 123, 1-(5-(4-(1-(2,3-dihydrobenzofuran-6-yl)ethyl)piperazin-1-yl)-1,3,4-thiadiazol-2-yl)-N,N-dimethylmethanamine] belongs less than 5e-08 M.
On the same count and under the same terms, to `CC(c1ccc2c(c1)OCC2)N1CCN(c2nnc(CN)s2)CC1` (racemic) [Example 124, (5-(4-(1-(2,3-dihydrobenzofuran-6-yl)ethyl)piperazin-1-yl)-1,3,4-thiadiazol-2-yl)methanamine] belongs less than 5e-08 M.
Take `CC(c1ccc2nccnc2c1)N1CCN(c2nnc(CN(C)C)s2)CC1` (racemic) [Example 125, N,N-dimethyl-1-(5-(4-(1-(quinoxalin-6-yl)ethyl)piperazin-1-yl)-1,3,4-thiadiazol-2-yl)methanamine]: the IC50 lay within 2e-07 to 1e-06 M.
The same measure, in the same setting: to `CC(c1ccc2nccnc2c1)N1CCN(c2nnc(CN)s2)CC1` (racemic) [Example 126, (5-(4-(1-(quinoxalin-6-yl)ethyl)piperazin-1-yl)-1,3,4-thiadiazol-2-yl)methanamine] belongs 2e-07 to 1e-06 M.
Consider `CC(c1ccc2c(c1)OCC2)N1CCN(c2nc3c(s2)CNCC3)CC1` (single isomer, unassigned) [Example 17], for which the IC50 is less than 5e-08 M.
On the same count and under the same terms, then `CC(c1ccc2nccnc2c1)N1CCN(c2ccc(=O)[nH]n2)CC1` (single isomer, unassigned) [Example 38, (S)-6-(4-(1-(quinoxalin-6-yl)ethyl)piperazin-1-yl)pyridazin-3(2H)-one or (R)-6-(4-(1-(quinoxalin-6-yl)ethyl)piperazin-1-yl)pyridazin-3(2H)-one], with 5e-08 to 2e-07 M; and `CC(=O)Nc1nnc(N2CCN(C(C)c3ccc4c(c3)OCC4)CC2)s1` (single isomer, unassigned) [Example 108], with 1e-06 to 1e-05 M; and `CC(=O)Nc1nnc(N2CCN(C(C)c3ccc4c(c3)OCC4)CC2)s1` (single isomer, unassigned) [Example 109], with less than 5e-08 M.
